Legend:
Granary Weevil = assay: Initial contact activity, granary weevil; type: in vivo
Plum curculio [1] = assay: Initial contact activity, spray, plum curculio; type: in vivo, Conotrachelus nenuphar [Herbst]; details: Conotrachelus nenuphar, 48 h, read-out: Percent Kill
Procedure: (§1) Initial Contact Activity: One half gram of test compound was dissolved in 40 ml of acetone and this solution was dispersed in 360 ml of water containing one drop of isooctylphenyl polyethoxyethanol. Aliquots of this solution, which corresponds to 1250 ppm of active ingredient, were diluted with an appropriate amount of water to provide solutions containing various concentrations of active ingredient. Test organisms and techniques were as follows: The activity against the Mexican bean beetle (Epilachna varivestis Muls.) and the southern armyworm (Spodoptera eridania [Cram.]) was evaluated by dipping the leaves of pinto bean plants into the test solution and infesting the leaves with the appropriate immature-form insects when the foiliage had dried; the activity against the pea aphid (Acyrthosiphon pisum [Harris]) was evaluated on broad bean plants whose leaves were dipped before infestation with adult aphids; the activity against two-sotted spider mites (Tetranychus urticae Koch) was evaluated on pinto bean plants whose leaves were dipped after infestation with adult mites; the activity against the milkweed bug (Oncopeltus fasciatus [Dallas]), and the plum curculio (Conotrachelus nenuphar [Herbst]) was evaluated by spraying the test solutions into glass dishes or jars containing the adult insects; the activity against the confused flour beetle (Tribolium confusum duVal) was evaluated by introducing the insects into glass dishes which had been previously sprayed with test solution and allowed to dry. All organisms in the test were maintained in a holding room at 80° F and 50% relative humidity for an exposure period of 48 hours. At the end of this time, the dead and living insects or mites were counted, and the percent kill was calculated.

Milkweed bug [2] = assay: Initial contact activity, spray, milkweed bug; type: in vivo, Oncopeltus fasciatus [Dallas]
Procedure: as §1

Pea aphid [3] = assay: Systemic activity, soil-watering, pea aphid; type: in vivo, Acyrthosiphon pisum [Harris]
Procedure: as §1
(§2) Systemic Activity: Systemic activity was measured using a soil-watering technique. Test organisms were Mexican bean beetle, southern armyworm, pea aphid, and mites on plants as described above in this Example. With appropriate precautions to avoid contact of the solution with the test plant surfaces, 25 ml of a test solution, prepared as above to contain the desired amount of active ingredient, were poured evenly over the surface of the soil in which the plant was growing. The treated plants were maintained under normal growing conditions for three days to permit translocation of the toxicant, after which the leaves were infested. Two days after infestation, counts of living and dead insects were made.

[4] = Toxicity to rats, acute oral median lethal dose (LD50), Method A; type: in vivo, young female albino rats, derived from Sprague-Dawley stock; details: in vivo, rat, corn oil, 14 days observation
Procedure: Method A: Young female albino rats, derived from Sprague-Dawley stock and weighing between 175 and 200 g, were used. An initial screening was conducted to determine the general level of toxicity of the test compounds and to establish the dosing range to be used with each compound. The test materials were suspended in corn oil and administered directly into the stomachs of the rats, using a hypodermic syringe equipped with a ball-tipped intubating needle. A range of dosing levels was employed utilizing two rats at each level. […] This method was used to determine the toxicity to rats of the compounds of Examples I, II, and III and aldicarb.

Mexican bean beetle [5] = assay: Initial contact activity, leaf dip, Mexican bean beetle; type: in vivo, Epilachna varivestis Muls.
Procedure: as §1

Mexican bean beetle [6] = assay: Systemic activity, soil-watering, Mexican bean beetle; type: in vivo, Epilachna varivestis Muls.; details: Epilachna varivestis, 48 h
Procedure: as §1, §2

Two-spotted spider mite [7] = assay: Initial contact activity, leaf dip, two-spotted spider mite; type: in vivo, Tetranychus urticae Koch; details: for Percent Kill: initial, SM, 48 hours, 2880 min
Procedure: as §1

Milkweed bug [8] = assay: Residual (7-day) contact activity, milkweed bug; type: in vivo, Oncopeltus fasciatus [Dallas]; details: for Percent Kill: residual 7-day, MWB
Procedure: as §1
(§3) Residual Contact Activity: The residual contact activity of the compounds was determined on the same organisms using the techniques described above, except that in each case the treated surface was allowed to dry and was exposed to normal light and air for seven days before introduction of the mites or insects.

Two-spotted spider mite [9] = assay: Residual (7-day) contact activity, two-spotted spider mite; type: in vivo, Tetranychus urticae Koch
Procedure: as §1, §3

Pea aphid [10] = assay: Residual (7-day) contact activity, pea aphid; type: in vivo, Acyrthosiphon pisum [Harris]; details: Acyrthosiphon pisum, 168 h
Procedure: as §1, §3

Plum curculio [11] = assay: Residual (7-day) contact activity, plum curculio; type: in vivo, Conotrachelus nenuphar [Herbst]
Procedure: as §1, §3

Southern armyworm = assay: Initial contact activity, leaf dip, southern armyworm; type: in vivo, Spodoptera eridania [Cram.]; details: for Percent Kill: initial, AW, 48 hours
Procedure: as §1

[12] = Conotrachelus nenuphar, 168 h, read-out: Percent Kill

Compound: CNC(=O)ON=CC(C)(C)SC [Aldicarb, 2-methyl-2-(methylthio)propanal O-(methylcarbamoyl)oxime]
- mortality at 20 ppm (Granary Weevil; Sitophilus granarius, 48 h, read-out: Percent Kill, initial, GW, 20 PPM, 48 hours): 20%
- mortality at 39 ppm (Granary Weevil; Sitophilus granarius, 48 h, read-out: Percent Kill, initial, GW, 39 PPM, 48 hours): 40%
- mortality at 156 ppm (Granary Weevil; Sitophilus granarius, 48 h, read-out: Percent Kill, initial, GW, 156 PPM, 48 hours): 100%
- mortality at 312 ppm (Granary Weevil; Sitophilus granarius, 48 h, read-out: Percent Kill, initial, GW, 312 PPM, 48 hours): 100%
- mortality at 1250 ppm (Granary Weevil; Sitophilus granarius, 48 h, read-out: Percent Kill, initial, GW, 1250 PPM, 48 hours): 100%
- Percent Kill (Granary Weevil; initial, GW, 156 PPM, 48 hours, 2880 min): 97.5%
- mortality at 10 ppm (Plum curculio [1]): 10%
- mortality at 39 ppm (Plum curculio [1]): 35%
- mortality at 156 ppm (Plum curculio [1]): 100%
- mortality at 1250 ppm (Plum curculio [1]): 100%
- mortality at 5 ppm (Milkweed bug [2]; Oncopeltus fasciatus, 48 h, read-out: Percent Kill, initial, MWB, 5 PPM, 48 hours): 30%
- mortality at 10 ppm (Milkweed bug [2]; Oncopeltus fasciatus, 48 h, read-out: Percent Kill, initial, MWB, 10 PPM, 48 hours): 55%
- mortality at 20 ppm (Milkweed bug [2]; Oncopeltus fasciatus, 48 h, read-out: Percent Kill, initial, MWB, 20 PPM, 48 hours): 95%
- mortality at 39 ppm (Milkweed bug [2]; Oncopeltus fasciatus, 48 h, read-out: Percent Kill, initial, MWB, 39 PPM, 48 hours): 100%
- mortality at 156 ppm (Milkweed bug [2]; Oncopeltus fasciatus, 48 h, read-out: Percent Kill, initial, MWB, 156 PPM, 48 hours): 100%
- mortality at 1250 ppm (Milkweed bug [2]; Oncopeltus fasciatus, 48 h, read-out: Percent Kill, initial, MWB, 1250 PPM, 48 hours): 100%
- Percent Kill (Milkweed bug [2]; initial, MWB, 10 PPM, 48 hours, 2880 min): 70%
- mortality at 5 ppm (Pea aphid [3]; Acyrthosiphon pisum, 48 h, read-out: Percent Kill, systemic, PA, 5 PPM): 100%
- mortality at 10 ppm (Pea aphid [3]; Acyrthosiphon pisum, 48 h, read-out: Percent Kill, systemic, PA, 10 PPM): 90%
- mortality at 39 ppm (Pea aphid [3]; Acyrthosiphon pisum, 48 h, read-out: Percent Kill, systemic, PA, 39 PPM): 100%
- mortality at 321 ppm (Pea aphid [3]; Acyrthosiphon pisum, 48 h, read-out: Percent Kill, systemic, PA, 321 PPM): 100%
- Percent Kill (Pea aphid [3]; systemic, PA, 10 PPM, 2880 min): 100%
- LD50 at 336 h [4]: 0.5 mg/kg
- mortality at 20 ppm (Mexican bean beetle [5]; Epilachna varivestis, foliar, 48 h, read-out: Percent Kill, initial, BB, 20 PPM, 48 hours): 0%
- mortality at 39 ppm (Mexican bean beetle [5]; Epilachna varivestis, foliar, 48 h, read-out: Percent Kill, initial, BB, 39 PPM, 48 hours): 40%
- mortality at 156 ppm (Mexican bean beetle [5]; Epilachna varivestis, foliar, 48 h, read-out: Percent Kill, initial, BB, 156 PPM, 48 hours): 89%
- mortality at 312 ppm (Mexican bean beetle [5]; Epilachna varivestis, foliar, 48 h, read-out: Percent Kill, initial, BB, 312 PPM, 48 hours): 95%
- mortality at 625 ppm (Mexican bean beetle [5]; Epilachna varivestis, foliar, 48 h, read-out: Percent Kill, initial, BB, 625 PPM, 48 hours): 100%
- mortality at 1250 ppm (Mexican bean beetle [5]; Epilachna varivestis, foliar, 48 h, read-out: Percent Kill, initial, BB, 1250 PPM, 48 hours): 100%
- Percent Kill (Mexican bean beetle [5]; initial, BB, 156 PPM, 48 hours, 2880 min): 91%
- mortality at 39 ppm (Mexican bean beetle [6]; read-out: Percent Kill, systemic, BB, 39 PPM): 100%
- mortality at 156 ppm (Mexican bean beetle [6]; read-out: Percent Kill, systemic, BB, 156 PPM): 100%
- mortality at 5 ppm (Two-spotted spider mite [7]; Tetranychus urticae, foliar, 48 h, read-out: Percent Kill, initial, SM, 5 PPM, 48 hours): 21%
- mortality at 10 ppm (Two-spotted spider mite [7]; Tetranychus urticae, foliar, 48 h, read-out: Percent Kill, initial, SM, 10 PPM, 48 hours): 88%
- mortality at 20 ppm (Two-spotted spider mite [7]; Tetranychus urticae, foliar, 48 h, read-out: Percent Kill, initial, SM, 20 PPM, 48 hours): 100%
- mortality at 39 ppm (Two-spotted spider mite [7]; Tetranychus urticae, foliar, 48 h, read-out: Percent Kill, initial, SM, 39 PPM, 48 hours): 100%
- mortality at 156 ppm (Two-spotted spider mite [7]; Tetranychus urticae, foliar, 48 h, read-out: Percent Kill, initial, SM, 156 PPM, 48 hours): 100%
- mortality at 1250 ppm (Two-spotted spider mite [7]; Tetranychus urticae, foliar, 48 h, read-out: Percent Kill, initial, SM, 1250 PPM, 48 hours): 100%
- Percent Kill (Two-spotted spider mite [7]; 10 PPM): 100%
- Percent Kill (Two-spotted spider mite [7]; 1250 PPM): 95%
- mortality at 156 ppm (Milkweed bug [8]; Oncopeltus fasciatus, 168 h, read-out: Percent Kill, residual 7-day, MWB, 156 PPM): 15%
- mortality at 312 ppm (Milkweed bug [8]; Oncopeltus fasciatus, 168 h, read-out: Percent Kill, residual 7-day, MWB, 312 PPM): 80%
- mortality at 625 ppm (Milkweed bug [8]; Oncopeltus fasciatus, 168 h, read-out: Percent Kill, residual 7-day, MWB, 625 PPM): 100%
- mortality at 1250 ppm (Milkweed bug [8]; Oncopeltus fasciatus, 168 h, read-out: Percent Kill, residual 7-day, MWB, 1250 PPM): 100%
- Percent Kill (Milkweed bug [8]; 312 PPM): 70%
- Percent Kill (Milkweed bug [8]; 1250 PPM): 100%
- mortality at 39 ppm (Two-spotted spider mite [9]; Tetranychus urticae, 168 h, read-out: Percent Kill, residual 7-day, SM, 39 PPM): 17%
- mortality at 156 ppm (Two-spotted spider mite [9]; Tetranychus urticae, 168 h, read-out: Percent Kill, residual 7-day, SM, 156 PPM): 91.5%
- mortality at 312 ppm (Two-spotted spider mite [9]; Tetranychus urticae, 168 h, read-out: Percent Kill, residual 7-day, SM, 312 PPM): 97%
- mortality at 1250 ppm (Two-spotted spider mite [9]; Tetranychus urticae, 168 h, read-out: Percent Kill, residual 7-day, SM, 1250 PPM): 98.6%
- Percent Kill (Two-spotted spider mite [9]; residual 7-day, SM, 156 PPM): 90%
- mortality at 156 ppm (Pea aphid [10]; read-out: Percent Kill, residual 7-day, PA, 156 PPM): 0%
- mortality at 625 ppm (Pea aphid [10]; read-out: Percent Kill, residual 7-day, PA, 625 PPM): 10%
- mortality at 1250 ppm (Pea aphid [10]; read-out: Percent Kill, residual 7-day, PA, 1250 PPM): 100%
- mortality at 156 ppm (Plum curculio [11]; [12]): 4.8%
- mortality at 312 ppm (Plum curculio [11]; [12]): 32%
- mortality at 625 ppm (Plum curculio [11]; [12]): 0%
- mortality at 1250 ppm (Plum curculio [11]; [12]): 0%
- Percent Kill (Plum curculio [11]; residual 7-day, PC, 1250 PPM): 0%
- mortality at 156 ppm (Southern armyworm; Spodoptera eridania, foliar, 48 h, read-out: Percent Kill, initial, AW, 156 PPM, 48 hours): 23%
- mortality at 312 ppm (Southern armyworm; Spodoptera eridania, foliar, 48 h, read-out: Percent Kill, initial, AW, 312 PPM, 48 hours): 0%
- mortality at 625 ppm (Southern armyworm; Spodoptera eridania, foliar, 48 h, read-out: Percent Kill, initial, AW, 625 PPM, 48 hours): 12%
- Percent Kill (Southern armyworm; 312 PPM): 0%
- Percent Kill (Southern armyworm; 625 PPM, 2880 min): 15%
